Patent US20030236288A1, “Use of substituted 3-phenyl-5-alkoxy-3H-(1,3,4)-oxadizol-2-ones for inhibiting pancreatic lipase” (priority 2002, published 2003)

tested on: not given; experiment: not given; settings: not given

Structure (SMILES)	melting point
COc1nn(-c2ccc(Oc3ccccc3)cc2)c(=O)o1	83 °C
COc1nn(-c2ccc(NC(=O)c3ccc(Cl)cc3)c(OCc3ccc(F)cc3)c2)c(=O)o1 [Example 46, 5-Methoxy-3-(4-(4-chlorobenzoylamino)-3-(4-fluorobenzyloxy)phenyl)-3H-(1,3,4)-oxadiazol-2-one]	167 °C
COc1nn(-c2cccc(NC(=O)Nc3ccccn3)c2)c(=O)o1 [Example 59, 5-Methoxy-3-(3-(pyrid-2-yl)aminocarbonylaminophenyl)-3H-(1,3,4)-oxadiazol-2-one]	81 °C
COc1nn(-c2ccc(S(=O)(=O)N3CCOCC3)cc2)c(=O)o1 [Example 208, 3-(4-Morpholinosulfonylphenyl)-5-methoxy-3H-(1,3,4)-oxadiazol-2-one]	164 °C
COc1nn(-c2ccc(OC(F)(F)F)cc2)c(=O)o1 [Example 209, 3-(4-Trifluoromethoxyphenyl)-5-methoxy-3H-(1,3,4)-oxad iazol-2-one]	52 °C
CCOc1nn(-c2ccc(OC(F)(F)F)cc2)c(=O)o1 [Example 210, 3-(4-Trifluoromethoxyphenyl)-5-ethoxy-3H-(1,3,4)-oxad iazol-2-one]	63 °C
COc1nn(-c2ccc(S(=O)(=O)NC3CC(C)CC(C)(C)C3)cc2)c(=O)o1 (centres unmarked) [Example 214, 3-(4-(3,3,5-Trimethylcyclohexylaminosulfonyl)phenyl)-5-methoxy-3H-(1,3,4)-oxadiazol-2-one]	164 °C
CCOc1nn(-c2ccc(OC3CC(C)(C)CC(C)(C)C3)cc2)c(=O)o1 [Example 215, 3-(4-(3,3,5,5-Tetramethylcyclohexyloxy)phenyl)-5-ethoxy-3H-(1,3,4)-oxad iazol-2-one]	111 °C
COc1nn(-c2ccc(Oc3ccc(Cl)cc3)cc2)c(=O)o1 [Example 229, 3-(4-(4-Chlorophenoxy)phenyl)-5-methoxy-3H-(1,3,4)-oxad iazol-2-one]	68 °C
COc1nn(-c2cccc(Oc3ccccc3)c2)c(=O)o1 [Example 232, 3-(3-Phenoxyphenyl)-5-methoxy-3H-(1,3,4)-oxad iazol-2-one]	89 °C
CCOc1nn(-c2cccc(Oc3ccccc3)c2)c(=O)o1 [Example 233, 3-(3-Phenoxyphenyl)-5-ethoxy-3H-(1,3,4)-oxadiazol-2-one]	50 °C
COc1nn(-c2cccc(OC3CC(C)(C)CC(C)(C)C3)c2)c(=O)o1 [Example 237, 3-(3-(3,3,5,5-Tetramethylcyclohexyloxy)phenyl)-5-methoxy-3H-(1,3,4)-oxadiazol-2-one]	68 °C
COc1nn(-c2ccc(-c3ccccc3)cc2)c(=O)o1 [Example 238, 3-(4-Phenylphenyl)-5-methoxy-3H-(1,3,4)-oxadiazol-2-one]	> 260 °C (dec.)
COc1nn(-c2cccc(COc3cccc(C)c3)c2)c(=O)o1 [Example 239, 3-(3-(3-Methylphenoxymethyl)phenyl)-5-methoxy-3H-(1,3,4)-oxadiazol-2-one]	47 °C
COc1nn(-c2cccc(-c3ccccc3)c2)c(=O)o1 [Example 240, 3-(3-Phenylphenyl)-5-methoxy-3H-(1,3,4)-oxadiazol-2-one]	80 °C

target: T1, pancreatic lipase (PL) (Sus scrofa, UniProt P00591); experiment: Pancreatic lipase inhibition assay (release of radiolabeled oleate from glycerol tri[9,10(n)-3H]oleate/tripalmitin substrate); format: biochemical; settings: enriched lipase preparation from porcine pancreas; 30° C., 30 min; up to 8 concentrations
T1 construct: Enriched preparation from porcine pancreas; purchased Sigma L-0382; host or cells: porcine pancreas (tissue preparation)
T1 sequence (P00591 1-450): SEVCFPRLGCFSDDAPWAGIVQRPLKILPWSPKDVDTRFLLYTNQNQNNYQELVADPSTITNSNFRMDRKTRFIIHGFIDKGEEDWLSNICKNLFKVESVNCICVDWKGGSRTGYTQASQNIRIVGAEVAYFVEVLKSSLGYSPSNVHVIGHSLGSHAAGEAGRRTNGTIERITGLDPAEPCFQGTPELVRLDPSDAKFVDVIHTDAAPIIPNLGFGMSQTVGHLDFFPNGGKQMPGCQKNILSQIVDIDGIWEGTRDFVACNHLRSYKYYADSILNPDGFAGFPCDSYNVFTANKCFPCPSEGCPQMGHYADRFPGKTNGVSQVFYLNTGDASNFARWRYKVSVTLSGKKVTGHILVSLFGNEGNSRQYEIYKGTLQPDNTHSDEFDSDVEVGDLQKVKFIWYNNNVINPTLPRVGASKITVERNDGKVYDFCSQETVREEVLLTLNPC
Description: The activity of the compounds was assayed as follows:
1. Preparation of the substrate:
80 μL of tripalmitin (85 mM in chloroform) are mixed with 5 μL of glycerol tri[9,10(n)-^3H]oleate (5 mCi/mL in toluene) in a 12 mL polypropylene vessel. Evaporation in a rotary evaporator (50° C.) and addition of 4 mL of 200 mM Tris/HCl (pH 7.6), 0.8% TX-100 are followed by ultrasound treatment of the mixture (Branson B-12 sonifier, output level 4, 3×2 min with 1 min intervals on ice) until a homogeneous milky suspension is produced.
Lipase buffer: 80 mM Tris/HCl (pH 7.6), 600 mM NaCl, 8 mM CaCl2, 8 mM benzamidine, 2 mM Pefabloc (Roche Biochemicals) (add the inhibitors only on the day of the assay)
Pancreatic lipase: Enriched preparation from porcine pancreas (Sigma order No. L-0382) dissolved in lipase buffer (100 000 units/500 μL)
5 μL of test substance (in 100% DMSO) or DMSO (control) are mixed with 10 μL of substrate and 5 μL of lipase (in this sequence) and incubated at 30° C. (Eppendorf Thermomixer, 350 min^−1) for 30 min. After addition of 325 μL of methanol/chloroform/n-heptane (10/9/7) and 105 μl of 0.1 M K2CO3, 0.1 M H3BO3 (pH 10.5 adjusted with 1 M KOH) and vigorous mixing, the phases are separated by centrifugation (8000 rpm, Eppendorf centrifuge, 4° C.). 140 μL portions of the aqueous supernatant (contains the liberated radiolabeled oleate; 70% recovery) are transferred into 20 mL scintillation vials and mixed with 6 mL of scintillation cocktail (Beckman Ready Safe). After vigorously mixing and incubating at room temperature for 2 h, the radioactivity is measured in a liquid scintillation counter (Beckman, L8008, tritium channel with quench curve, measurement time 20 min).
Substances are routinely tested in each concentration in three independent incubation mixtures each with duplicate determination after phase separation (SD<0.02). Background values (reaction under the same conditions but without lipase) are subtracted from all values (corresponds predominantly to the content of glycerol trioleate or free oleate in the substrate preparation in the aqueous phase, <5% of the radioactivity employed). The inhibition of the pancreatic lipase enzymatic activity by a test substance is determined by comparison with an uninhibited control reaction (presence of lipase=0% inhibition; absence of lipase 100% inhibition in each case after background correction). The IC50 is calculated from an inhibition plot with up to 8 concentrations of the test substance. The software package GRAPHIT (Elsevier-BIOSOFT) is used for curve fitting and IC50 determination.

Structure (SMILES)	IC50 [nM]
COc1nn(-c2ccc(NC(=O)c3ccc(C(F)(F)F)cc3)c(OCc3ccccc3)c2)c(=O)o1 [Example 86, 5-Methoxy-3-(3-benzyloxy-4-(4-trifluoromethylbenzoylamino)phenyl)-3H-(1,3,4)-oxadiazol-2-one]	1500
CCOc1nn(-c2ccc(OC(F)(F)F)cc2)c(=O)o1 [Example 210, 3-(4-Trifluoromethoxyphenyl)-5-ethoxy-3H-(1,3,4)-oxad iazol-2-one]	700
CCCCOc1nn(-c2ccc(OC(F)(F)F)cc2)c(=O)o1 [Example 212, 3-(4-Trifluoromethoxyphenyl)-5-butoxy-3H-(1,3,4)-oxadiazol-2-one]	500
O=c1oc(OCc2ccccc2)nn1-c1ccc(OC(F)(F)F)cc1 [Example 213, 3-(4-Trifluoromethoxyphenyl)-5-benzyloxy-3H-(1,3,4)-oxad iazol-2-one]	500
COc1nn(-c2cccc(OCc3ccccc3)c2)c(=O)o1 [Example 216, 3-(3-Benzyloxyphenyl)-5-methoxy-3H-(1,3,4)-oxadiazol-2-one]	800
CCOc1nn(-c2cccc(OC(F)(F)F)c2)c(=O)o1 [Example 218, 3-(3-Trifluoromethoxyphenyl)-5-ethoxy-3H-(1,3,4)-oxad iazol-2-one]	700
CC(C)Oc1nn(-c2cccc(OC(F)(F)F)c2)c(=O)o1 [Example 220, 3-(3-Trifluoromethoxyphenyl)-5-isopropoxy-3H-(1,3,4)-oxadiazol-2-one]	1800
COc1nn(-c2ccc(Oc3ccc(Cl)cc3)cc2)c(=O)o1 [Example 229, 3-(4-(4-Chlorophenoxy)phenyl)-5-methoxy-3H-(1,3,4)-oxad iazol-2-one]	600
